The text below walks through data of PubChem BioAssay (NCI).

Holding throughout (assay): NCI-60 cell line screen, 48 h
Test [1] has as its system HL-60(TB) leukemia.
Test [2] has as its system MCF7 breast.
Test [3] deals with UO-31 renal.
The subject of test [4] is MDA-MB-231 breast.
Test [5] has as its system UACC-257 melanoma.
Test [6] relates to TK-10 renal.
The test system of test [7] is PC-3 prostate.
Test [8] has as its system SK-MEL-2 melanoma.
For test [9], the system named is HCT-116 colon.
For test [10], the system named is CCRF-CEM leukemia.

“And” between values parts separate entries of the source, which are not always exact repeats. Equal values may be shown once.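 Compound exposure: 48 hours, 5 concentrations, 96-well plates. GI50: concentration for 50% inhibition of growth. Definition used: TGI = concentration required for complete inhibition of growth.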 A value given as a limit tells only on which side of the number the result lay.

Turning to `CC1=CCCC2C1(C)CCC(C)C2(C)Cc1cc(O)ccc1O` (stereo unspecified), the GI50 in test [1] is 2.67 µM; in test [2], 7.15 µM; in test [5], 9.99 µM; in test [9], 9.85 µM; in test [10] it was 3.76 µM. Moreover, the TGI in test [1] was 15.2 µM and 4.61 µM; in [2], 21.7 µM and 19.8 µM; in test [3], 19.1 µM and 15.4 µM; in test [4], 21.5 µM; in test [5] it was 29.1 µM and 26.4 µM; in test [6], 25.5 µM. Besides, the TGI is 18.1 µM in test [7]; 27.9 µM and 24 µM in test [8]; 24.8 µM and 15.7 µM in [9]; > 37.1 µM and 5.88 µM in test [10].
Take `O=[N+]([O-])c1ccc(C2CC(c3ccccc3)=Nc3ccccc3S2)cc1` (stereo unspecified): the GI50 was > 100 µM in test [1]; 1.81 µM in [2]; 3.8 µM in test [3]; > 100 µM in [4]; > 100 µM in [5]; > 100 µM in test [6]. The GI50 was 8.2 µM in test [7], > 100 µM in test [8], 1.98 µM in [9] and 4.66 µM in test [10]. Moreover, the TGI in test [1] is > 100 µM; in test [2] it was 6.72 µM; in [3], > 100 µM; in test [4] it was > 100 µM; in test [5], > 100 µM; in [6], > 100 µM. The TGI in test [7] is > 100 µM; in test [8] it was > 100 µM; in test [9], 4.11 µM; in test [10] it was > 100 µM.
For `CC1=NN(c2ccc(S(=O)(=O)O)cc2)C(=O)/C1=C/c1ccc(Cl)cc1`, the TGI in test [1], in test [2], in [3], in test [4], in [5] and in [6] was > 100 µM each time. Besides, the TGI in test [7], in test [8], in test [9] and in [10] was > 100 µM each time.
In the case of `COc1cc2c(cc1Cc1cccc(Cl)c1F)c(=O)c(C(=O)O)cn2[C@@H](CO)C(C)C`, the GI50 in [1] is 2.81 µM; in test [2] it was 3.54 µM; in [3], 2.62 µM; in [4] it was 3.84 µM; in test [5] it was 3.23 µM; in [7] it was 2.59 µM. Moreover, the values for the GI50 in test [8], in test [9] and in test [10] were 3.98 µM, 2.99 µM and 3.41 µM, respectively. Moreover, the TGI stood at 6.95 µM in [1]; 16.3 µM in test [2]; 11.9 µM in test [3]; 19.7 µM in test [4]; 14 µM in test [5]; 9.21 µM in test [7]. Further, the TGI in [8] came out at 13.8 µM; in test [9] it was 11.7 µM; in test [10], 14.2 µM.
As to `C[C@]12CC[C@@H]3c4cc(O)c(O)cc4CC[C@H]3[C@@H]1CC[C@@H]2O`, the GI50 was 2.33 µM in [1]; 3.07 µM in [2]; 5.68 µM in [3]; 4.61 µM in test [4]; 13 µM in test [5]; 24.8 µM in test [6]. Moreover, the GI50 in [7] was 10.5 µM; in test [8], 3.23 µM; in [9], 4.4 µM; in [10], 1.67 µM. Also, the TGI in test [1] is 24.7 µM; in test [2], 18 µM; in test [3], 77.8 µM; in test [4] it was 52.5 µM; in test [5] it was > 100 µM; in test [6], > 74.9 µM. Also, the TGI in test [7] was > 100 µM; in test [8] it was 22.2 µM; in test [9] it was > 51.4 µM; in test [10] it was 20.2 µM.
Regarding `CCCCCCCCC/C(=N\NC(=O)c1ccncc1)c1ccc(O)c(O)c1O`, the GI50 was 0.288 µM in [1]; 0.309 µM in test [2]; 0.0745 µM in [3]; 0.116 µM in [4]; 0.293 µM in test [5]; 0.196 µM in test [6]. In addition, the GI50 was 1.6 µM in [7], 0.521 µM in test [8], 0.121 µM in test [9] and 0.0426 µM in [10]. Further, the TGI in test [1] is 0.955 µM; in test [2], 18.3 µM; in [3], > 29.3 µM; in test [4], 31.5 µM; in test [5] it was 9.32 µM; in [6], > 100 µM. The TGI is > 100 µM in [7], > 100 µM in test [8], 12.8 µM in test [9] and 3.63 µM in test [10].
On to `C=C1C(=O)O[C@H]2C[C@@H]1CC/C(C)=C/CC/C(C)=C/CC[C@@]2(C)O`, for which the GI50 in test [1] is 20.7 µM; in [2] it was 37.3 µM; in test [3], 30.9 µM; in test [4] it was 25.7 µM; in test [5], > 100 µM; in test [6] it was 21.5 µM. The GI50 was 29.9 µM in [7], 46.7 µM in test [8], 17.6 µM in [9] and 16.5 µM in test [10]. The TGI is 45.7 µM in test [1]; > 100 µM in test [2]; 87.4 µM in [3]; 53.7 µM in test [4]; > 100 µM in test [5]; 67.7 µM in test [6]. Besides, the TGI in test [7] was 95 µM; in test [8], > 100 µM; in test [9], 32.8 µM; in test [10], 38.9 µM.
Take `COc1ccc2c(O)c(/C=C3\N=Nc4ccccc43)oc2c1C[C@@H]1CCNC[C@H]1F`: the GI50 in test [1] is 16 µM; in test [2], 3.44 µM; in test [3], 7.55 µM; in test [4] it was 2.42 µM; in test [5] it was 16.2 µM; in test [6] it was 15 µM. For the same molecule, the GI50 in test [7] was 3.26 µM; in test [8] it was 17 µM; in [9], 1.65 µM; in test [10], 2.33 µM. Moreover, the TGI in [1] turned out to be 37.8 µM; in test [2], 19.5 µM; in [3] it was 22.1 µM; in test [4], 7.33 µM; in test [5], 32 µM; in test [6] it was 29.4 µM. Moreover, the TGI is 15.4 µM in test [7], 32.5 µM in test [8], 3.17 µM in [9] and 6.1 µM in test [10].
On to `O=C1NC2C(=CC(O)C(O)C2O)c2cc3c(cc21)OCO3` (stereo unspecified), for which the TGI in [1] is 0.282 µM and 0.213 µM and 0.594 µM; in test [2] it was 0.854 µM and 4.46 µM; in test [3], 2.29 µM and 2.41 µM; in test [4], 2.39 µM; in test [5], 2.83 µM and 2.86 µM; in test [6] it was 4.11 µM. Moreover, the TGI in [7] is 2.08 µM; in test [8], 2.95 µM and 1.43 µM; in [9] it was 1.18 µM and 2.77 µM; in test [10], 0.875 µM and 3.55 µM. Further, the GI50 in test [2] was 0.0495 µM; in test [3], 0.279 µM and 0.264 µM; in test [5], 0.47 µM and 0.304 µM; in test [6], 0.917 µM; in test [8] it was 0.305 µM; in [9], 0.282 µM and 0.101 µM. Further, in test [10], the GI50 is 0.154 µM and 0.115 µM.
For `S=C(NCCNC(=S)[S][Sn]([c]1ccccc1)([c]1ccccc1)[c]1ccccc1)[S][Sn]([c]1ccccc1)([c]1ccccc1)[c]1ccccc1`, the GI50 was 0.093 µM in [1]; 0.0133 µM in [2]; 0.0337 µM in [3]; 0.0207 µM in test [4]; 0.0522 µM in test [5]; 0.0612 µM in [6]. Moreover, the GI50 in test [7] was 0.0311 µM; in test [8], 0.0823 µM; in test [9], 0.0127 µM; in [10], 0.0179 µM. Besides, the TGI is 0.312 µM in test [1]; 0.0553 µM in test [2]; 0.1 µM in [3]; 0.0957 µM in [4]; 0.117 µM in test [5]; 0.126 µM in test [6]. In addition, the TGI in test [7] was found to be 0.153 µM; in test [8], 0.215 µM; in test [9] it was 0.0315 µM; in test [10] it was 0.657 µM.
In the case of `CC(N)(/C=C/c1ccccc1)C(=O)O` (stereo unspecified), the TGI in test [1], in test [2], in test [3], in test [4], in [5] and in test [6] was > 100 µM in each case. Besides, the TGI in [7], in test [8] and in test [9] was > 100 µM each time.
Take `c1ccc2cc(NCNc3ccc4ccccc4c3)ccc2c1`: the TGI in test [1] is 3.79 µM; in [2], 25.6 µM; in [3], 41.6 µM; in [4], 38.9 µM; in test [5], 20.9 µM; in test [6], > 67.6 µM. Besides, the TGI in test [7] was > 58.3 µM; in test [8] it was 32.1 µM; in test [9], 43.4 µM; in [10], 62.6 µM.
Take `COc1ccc2c(c1)[nH]c(=O)c1c3ccccc3cn21`: the GI50 in test [1] is 0.0114 µM; in test [2], 0.0282 µM and < 0.0378 µM; in test [3], 0.0795 µM; in test [4], 0.0565 µM and 0.148 µM; in test [5], 5.13 µM and 12.7 µM; in test [6] it was 0.515 µM and 0.265 µM. The values for the GI50 in test [7], in test [9] and in test [10] were 0.0368 µM, 0.0395 µM and 0.03 µM, respectively. Further, the TGI in [1] is 0.0607 µM; in [2], 1.46 µM and 12.7 µM; in [3], 2.26 µM and 5.82 µM; in test [4], 0.74 µM and 1.08 µM; in test [5], 30.8 µM; in [6], 2.43 µM and 2.21 µM. The TGI in test [7] was 2.55 µM and 3.04 µM; in test [8], 2.49 µM and 18.7 µM; in test [9], 1.32 µM and 1.12 µM.
On to `Clc1ccc(Nc2ccnc(N3CCN(c4ccnc5cc(Cl)ccc45)CC3)n2)cc1`, for which the GI50 in test [1] was 3.54 µM; in [2] it was 1.96 µM; in [3] it was 1.28 µM; in [4] it was 2.22 µM; in [5] it was 3.05 µM; in test [6], 3.43 µM. In addition, the values for the GI50 in test [7], in test [9] and in test [10] were 1.98 µM, 1.99 µM and 3.07 µM, respectively. Also, the TGI in test [1] was 20 µM; in test [2], 6.87 µM; in test [3] it was 5.61 µM; in [4], 7.22 µM; in test [5] it was 13.5 µM; in test [6] it was 8.5 µM. Besides, the values for the TGI in [7], in test [9] and in [10] were 13.3 µM, 6.38 µM and 20.6 µM, respectively.
As to `CN(C)CCCCC(C(=O)CBr)(c1ccccc1)c1ccccc1`, the GI50 in test [1] was 1.22 µM; in test [2], 1.5 µM; in test [3], 1.27 µM; in [4], 1.89 µM; in test [5] it was 1.96 µM; in test [6], 1.5 µM. In addition, the GI50 in [7] is 2.71 µM; in test [8], 2.18 µM; in test [10] it was 2.06 µM. Moreover, the TGI was found to be 3.95 µM in [1]; 3.25 µM in [2]; 2.79 µM in test [3]; 4.49 µM in [4]; 6.59 µM in test [5]; 3.01 µM in test [6]. Further, the TGI turned out to be 9.58 µM in test [7], 6.02 µM in test [8] and 6.45 µM in test [10].
`CN1CCC2(CC1)NC(=O)c1c(c3ccc(Cl)c(Cl)c3n1C)C2C#N` (stereo unspecified): the GI50 was 3.91 µM in test [1]; 2.53 µM in test [2]; 4.21 µM in [3]; 5.19 µM in test [4]; 2.12 µM in test [5]; 10.5 µM in test [6]. Besides, the figures for the GI50 in test [7], in test [9] and in test [10] were 5.7 µM, 3.11 µM and 6.32 µM, respectively. In addition, the TGI in test [1] was > 22.6 µM; in [2] it was 8.83 µM; in test [3], 17.4 µM; in test [4] it was 15.2 µM; in test [5] it was 4.71 µM; in [6] it was 23.4 µM. For the same molecule, the TGI in test [7] was 21.1 µM; in test [9], 9.17 µM; in test [10], > 54.8 µM.
